The source of these data is paper PMC12136037, “Type II kinase inhibitors that target Parkinson’s disease–associated LRRK2” (Science Advances, 2025).

What all share (assay): DSF 100 kinase selectivity screen;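 also: compound tested at 20 µM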
What all share (assay type): binding

The target in test [1] is T1, ~100 representative kinases (Homo sapiens, UniProt P34947).
T1 construct: Recombinant protein kinase domains with a concentration of 2 μM
The conditions noted are these: protein GPRK5; average of three replicates. The gist of the method:
(§1)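 Each kinase domain, at 2 μM, is mixed with 20 μM test compound and SYPRO Orange in Hepes (20 mM, pH 7.5) with 500 mM NaCl. Temperature is then raised at 3°C/min and fluorescence-monitored unfolding yields the melting temperature change, ΔTm in degrees Celsius.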

Test [2] deals with T2, ~100 representative kinases (Homo sapiens, UniProt Q14680).
T2 construct: Recombinant protein kinase domains with a concentration of 2 μM
T2 sequence (Q14680 whole entry, the tested form may be a part): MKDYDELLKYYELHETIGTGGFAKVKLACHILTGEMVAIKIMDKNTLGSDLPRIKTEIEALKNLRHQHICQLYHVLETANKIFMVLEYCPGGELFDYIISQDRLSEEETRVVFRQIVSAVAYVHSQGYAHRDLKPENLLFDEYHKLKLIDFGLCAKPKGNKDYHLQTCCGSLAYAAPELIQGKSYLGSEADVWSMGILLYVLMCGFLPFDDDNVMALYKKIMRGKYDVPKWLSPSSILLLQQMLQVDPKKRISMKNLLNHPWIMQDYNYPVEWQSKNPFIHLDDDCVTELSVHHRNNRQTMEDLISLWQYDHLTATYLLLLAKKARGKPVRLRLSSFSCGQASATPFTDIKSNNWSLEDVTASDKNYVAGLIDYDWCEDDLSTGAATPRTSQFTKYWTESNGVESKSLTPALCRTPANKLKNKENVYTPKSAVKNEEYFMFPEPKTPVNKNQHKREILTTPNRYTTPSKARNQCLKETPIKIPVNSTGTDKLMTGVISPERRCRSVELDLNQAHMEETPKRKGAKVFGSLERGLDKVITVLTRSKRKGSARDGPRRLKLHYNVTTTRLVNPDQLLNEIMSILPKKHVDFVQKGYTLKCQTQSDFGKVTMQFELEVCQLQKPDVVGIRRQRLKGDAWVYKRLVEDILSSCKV
The settings on record: protein MELK; average of three replicates. The method in brief: as §1

Test [3] has as its target T3, ~100 representative kinases (Homo sapiens, UniProt O94804).
T3 construct: Recombinant protein kinase domains with a concentration of 2 μM
The conditions noted are these: Protein STK10; DSF; average of three replicates. The method in brief: as §1

For test [4], the target named is T4, ~100 representative kinases (Homo sapiens, UniProt O43293).
T4 construct: Recombinant protein kinase domains with a concentration of 2 μM
T4 sequence (O43293 whole entry, the tested form may be a part): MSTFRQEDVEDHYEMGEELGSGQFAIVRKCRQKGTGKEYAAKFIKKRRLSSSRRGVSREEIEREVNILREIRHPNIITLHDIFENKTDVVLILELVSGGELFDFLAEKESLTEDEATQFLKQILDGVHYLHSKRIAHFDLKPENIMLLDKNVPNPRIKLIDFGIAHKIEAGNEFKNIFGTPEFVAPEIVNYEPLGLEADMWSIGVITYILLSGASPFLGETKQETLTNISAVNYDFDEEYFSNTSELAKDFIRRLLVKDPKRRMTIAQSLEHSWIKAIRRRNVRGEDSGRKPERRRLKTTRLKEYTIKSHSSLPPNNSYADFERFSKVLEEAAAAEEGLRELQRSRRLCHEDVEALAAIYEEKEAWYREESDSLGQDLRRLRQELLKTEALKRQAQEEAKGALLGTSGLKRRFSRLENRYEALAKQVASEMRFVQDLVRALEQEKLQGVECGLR
The conditions noted are these: Protein DAPK3; average of three replicates. The gist of the method: as §1

Test [5] deals with T5, ~100 representative kinases (Homo sapiens, UniProt O14976).
T5 construct: Recombinant protein kinase domains with a concentration of 2 μM
T5 sequence (O14976 1-1311): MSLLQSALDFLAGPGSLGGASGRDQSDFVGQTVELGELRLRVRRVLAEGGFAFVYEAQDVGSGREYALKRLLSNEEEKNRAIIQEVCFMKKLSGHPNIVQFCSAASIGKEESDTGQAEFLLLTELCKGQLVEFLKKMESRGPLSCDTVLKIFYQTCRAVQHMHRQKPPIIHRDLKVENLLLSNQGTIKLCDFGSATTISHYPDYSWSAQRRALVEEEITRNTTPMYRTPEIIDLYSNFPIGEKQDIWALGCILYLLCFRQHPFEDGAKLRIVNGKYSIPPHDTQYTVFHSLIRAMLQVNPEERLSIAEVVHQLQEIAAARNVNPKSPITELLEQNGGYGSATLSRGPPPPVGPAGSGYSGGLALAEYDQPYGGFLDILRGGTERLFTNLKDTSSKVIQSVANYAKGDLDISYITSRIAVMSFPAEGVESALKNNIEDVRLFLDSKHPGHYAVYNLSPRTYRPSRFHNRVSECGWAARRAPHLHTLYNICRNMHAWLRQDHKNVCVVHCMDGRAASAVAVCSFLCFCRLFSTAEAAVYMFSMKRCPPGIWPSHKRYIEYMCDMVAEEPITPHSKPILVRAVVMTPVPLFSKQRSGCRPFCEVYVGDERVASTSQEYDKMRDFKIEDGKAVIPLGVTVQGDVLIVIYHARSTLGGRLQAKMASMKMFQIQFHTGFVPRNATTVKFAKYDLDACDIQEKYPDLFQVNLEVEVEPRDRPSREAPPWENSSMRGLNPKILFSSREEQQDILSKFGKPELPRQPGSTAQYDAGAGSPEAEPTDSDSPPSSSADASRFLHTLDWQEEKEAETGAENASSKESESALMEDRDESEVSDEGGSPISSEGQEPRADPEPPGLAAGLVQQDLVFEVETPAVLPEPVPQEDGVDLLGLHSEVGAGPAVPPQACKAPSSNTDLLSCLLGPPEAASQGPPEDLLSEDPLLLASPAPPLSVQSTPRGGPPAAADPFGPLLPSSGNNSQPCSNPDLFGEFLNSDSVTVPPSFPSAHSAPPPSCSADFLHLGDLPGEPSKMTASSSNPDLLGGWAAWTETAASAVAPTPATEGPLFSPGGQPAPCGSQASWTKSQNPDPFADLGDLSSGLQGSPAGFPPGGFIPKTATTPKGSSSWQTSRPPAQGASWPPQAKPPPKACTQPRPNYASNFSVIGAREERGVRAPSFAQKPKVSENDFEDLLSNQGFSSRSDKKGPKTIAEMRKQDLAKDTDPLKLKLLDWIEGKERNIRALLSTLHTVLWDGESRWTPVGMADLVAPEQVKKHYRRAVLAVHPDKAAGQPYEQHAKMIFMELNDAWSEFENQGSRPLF
The settings on record: protein GAK; average of three replicates. The gist of the method:
as §1

In test [6] the target is T6, ~100 representative kinases (Homo sapiens, UniProt P00519).
T6 construct: Recombinant protein kinase domains with a concentration of 2 μM
The conditions noted are these: Protein ABL1; average of three replicates. The method in brief: as §1

Test [7] addresses T7, ~100 representative kinases (Homo sapiens, UniProt P21802).
T7 construct: Recombinant protein kinase domains with a concentration of 2 μM
The settings on record: protein FGFR2; average of three replicates. The method in brief: as §1

The target in test [8] is T8, ~100 representative kinases (Homo sapiens, UniProt Q2M2I8).
T8 construct: Recombinant protein kinase domains with a concentration of 2 μM
The settings on record: Protein AAK1; average of three replicates. The method in brief:
as §1

The target of test [9] is T9, ~100 representative kinases (Homo sapiens, UniProt Q86V86).
T9 construct: Recombinant protein kinase domains with a concentration of 2 μM
The conditions noted are these: protein PIM3; average of three replicates. The method in brief:
as §1

The target in test [10] is T10, ~100 representative kinases (Homo sapiens, UniProt P53779).
T10 construct: Recombinant protein kinase domains with a concentration of 2 μM
T10 sequence (P53779 whole entry, the tested form may be a part): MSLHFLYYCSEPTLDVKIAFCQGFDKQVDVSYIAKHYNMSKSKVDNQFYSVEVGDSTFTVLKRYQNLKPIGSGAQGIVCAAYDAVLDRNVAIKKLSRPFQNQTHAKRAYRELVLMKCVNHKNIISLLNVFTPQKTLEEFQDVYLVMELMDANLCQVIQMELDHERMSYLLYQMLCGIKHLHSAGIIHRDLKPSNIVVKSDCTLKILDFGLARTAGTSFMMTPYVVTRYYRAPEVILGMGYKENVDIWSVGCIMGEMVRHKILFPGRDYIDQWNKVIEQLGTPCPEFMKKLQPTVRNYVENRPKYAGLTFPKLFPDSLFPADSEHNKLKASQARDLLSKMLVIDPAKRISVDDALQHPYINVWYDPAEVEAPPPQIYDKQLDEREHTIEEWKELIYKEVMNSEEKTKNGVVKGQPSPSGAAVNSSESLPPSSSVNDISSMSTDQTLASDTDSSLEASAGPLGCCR
The settings on record: protein MAPK10; average of three replicates. The method in brief:
as §1

The target of test [11] is T11, ~100 representative kinases (Homo sapiens, UniProt Q13153).
T11 construct: Recombinant protein kinase domains with a concentration of 2 μM
T11 sequence (Q13153 whole entry, the tested form may be a part): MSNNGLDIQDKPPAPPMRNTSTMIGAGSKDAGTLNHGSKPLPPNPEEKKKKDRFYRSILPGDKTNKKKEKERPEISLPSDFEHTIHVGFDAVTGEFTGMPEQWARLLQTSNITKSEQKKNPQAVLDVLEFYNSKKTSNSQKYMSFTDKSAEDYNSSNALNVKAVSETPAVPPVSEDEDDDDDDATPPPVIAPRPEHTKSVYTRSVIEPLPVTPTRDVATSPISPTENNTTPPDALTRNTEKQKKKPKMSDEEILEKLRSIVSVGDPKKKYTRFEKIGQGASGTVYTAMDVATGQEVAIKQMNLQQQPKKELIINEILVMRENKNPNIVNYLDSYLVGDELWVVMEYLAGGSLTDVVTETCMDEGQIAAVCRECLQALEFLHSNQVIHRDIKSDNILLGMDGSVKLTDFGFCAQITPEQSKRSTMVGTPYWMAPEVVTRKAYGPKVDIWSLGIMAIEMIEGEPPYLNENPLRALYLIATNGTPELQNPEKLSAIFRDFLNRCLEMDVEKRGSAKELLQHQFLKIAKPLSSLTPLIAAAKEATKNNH
The conditions noted are these: protein PAK1; average of three replicates. The gist of the method:
as §1

In test [12] the target is T12, ~100 representative kinases (Homo sapiens, UniProt Q09013).
T12 construct: Recombinant protein kinase domains with a concentration of 2 μM
T12 sequence (Q09013 1-629): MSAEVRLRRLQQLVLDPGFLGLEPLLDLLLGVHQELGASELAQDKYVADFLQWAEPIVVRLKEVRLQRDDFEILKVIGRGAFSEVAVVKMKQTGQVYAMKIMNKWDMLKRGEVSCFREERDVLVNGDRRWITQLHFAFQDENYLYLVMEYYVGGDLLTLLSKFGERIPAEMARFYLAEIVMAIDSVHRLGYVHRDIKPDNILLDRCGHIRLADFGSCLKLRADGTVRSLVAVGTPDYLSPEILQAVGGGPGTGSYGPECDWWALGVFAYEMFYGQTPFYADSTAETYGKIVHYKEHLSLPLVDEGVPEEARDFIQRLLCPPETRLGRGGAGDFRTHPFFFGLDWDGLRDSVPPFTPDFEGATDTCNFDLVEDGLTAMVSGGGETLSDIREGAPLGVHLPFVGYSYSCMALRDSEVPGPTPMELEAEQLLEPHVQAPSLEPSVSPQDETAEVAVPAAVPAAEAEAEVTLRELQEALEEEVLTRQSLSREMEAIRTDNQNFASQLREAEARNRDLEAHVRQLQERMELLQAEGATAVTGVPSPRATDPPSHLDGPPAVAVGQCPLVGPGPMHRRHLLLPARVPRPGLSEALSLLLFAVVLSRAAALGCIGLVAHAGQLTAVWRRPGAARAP
The settings on record: Protein DMPK1; average of three replicates. The gist of the method:
as §1

T7 sequence (P21802 22-821): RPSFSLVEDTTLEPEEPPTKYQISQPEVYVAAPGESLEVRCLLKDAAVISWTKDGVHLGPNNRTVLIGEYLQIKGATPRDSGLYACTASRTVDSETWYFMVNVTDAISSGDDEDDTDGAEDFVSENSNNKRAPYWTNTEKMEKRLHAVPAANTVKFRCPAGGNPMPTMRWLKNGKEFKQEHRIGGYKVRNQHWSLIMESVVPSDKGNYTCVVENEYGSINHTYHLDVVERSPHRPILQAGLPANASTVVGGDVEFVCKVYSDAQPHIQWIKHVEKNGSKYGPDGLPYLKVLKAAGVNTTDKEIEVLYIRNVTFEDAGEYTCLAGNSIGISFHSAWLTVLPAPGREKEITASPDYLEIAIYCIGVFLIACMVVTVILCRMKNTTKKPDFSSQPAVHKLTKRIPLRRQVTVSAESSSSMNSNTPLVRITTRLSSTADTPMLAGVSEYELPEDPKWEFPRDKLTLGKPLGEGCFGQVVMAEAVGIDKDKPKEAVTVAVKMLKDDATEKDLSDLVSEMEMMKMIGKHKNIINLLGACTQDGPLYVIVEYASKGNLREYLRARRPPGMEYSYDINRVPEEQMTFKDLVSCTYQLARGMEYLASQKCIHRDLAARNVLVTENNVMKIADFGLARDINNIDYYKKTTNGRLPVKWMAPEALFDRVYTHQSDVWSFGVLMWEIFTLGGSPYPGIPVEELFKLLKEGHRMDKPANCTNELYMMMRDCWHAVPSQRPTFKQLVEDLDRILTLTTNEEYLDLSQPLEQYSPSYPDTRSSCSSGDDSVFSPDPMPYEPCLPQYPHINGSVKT
T3 sequence (O94804 whole entry, the tested form may be a part): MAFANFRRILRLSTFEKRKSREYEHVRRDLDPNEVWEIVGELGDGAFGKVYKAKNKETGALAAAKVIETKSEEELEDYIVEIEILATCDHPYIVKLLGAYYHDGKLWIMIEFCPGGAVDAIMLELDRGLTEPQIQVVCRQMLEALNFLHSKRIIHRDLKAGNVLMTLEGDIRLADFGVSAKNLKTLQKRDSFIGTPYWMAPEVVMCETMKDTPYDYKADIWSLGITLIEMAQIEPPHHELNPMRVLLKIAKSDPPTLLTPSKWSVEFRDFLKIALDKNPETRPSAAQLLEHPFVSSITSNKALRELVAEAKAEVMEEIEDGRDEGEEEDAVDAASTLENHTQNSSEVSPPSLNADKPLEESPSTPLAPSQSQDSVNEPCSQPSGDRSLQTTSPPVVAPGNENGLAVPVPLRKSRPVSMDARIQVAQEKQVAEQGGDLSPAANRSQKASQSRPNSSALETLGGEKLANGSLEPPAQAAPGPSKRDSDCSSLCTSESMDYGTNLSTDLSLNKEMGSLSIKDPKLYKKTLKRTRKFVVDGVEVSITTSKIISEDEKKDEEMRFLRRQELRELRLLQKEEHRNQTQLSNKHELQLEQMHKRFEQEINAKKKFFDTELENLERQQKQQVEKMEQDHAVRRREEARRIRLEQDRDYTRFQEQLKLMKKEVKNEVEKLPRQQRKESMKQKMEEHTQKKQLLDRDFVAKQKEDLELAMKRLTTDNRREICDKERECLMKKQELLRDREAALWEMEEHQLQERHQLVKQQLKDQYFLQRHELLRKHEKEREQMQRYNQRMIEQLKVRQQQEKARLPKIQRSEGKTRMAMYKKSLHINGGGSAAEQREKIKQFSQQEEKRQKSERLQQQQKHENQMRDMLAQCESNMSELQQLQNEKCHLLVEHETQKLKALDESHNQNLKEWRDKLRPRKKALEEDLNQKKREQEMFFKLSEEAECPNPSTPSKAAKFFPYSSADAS
T1 sequence (P34947 whole entry, the tested form may be a part): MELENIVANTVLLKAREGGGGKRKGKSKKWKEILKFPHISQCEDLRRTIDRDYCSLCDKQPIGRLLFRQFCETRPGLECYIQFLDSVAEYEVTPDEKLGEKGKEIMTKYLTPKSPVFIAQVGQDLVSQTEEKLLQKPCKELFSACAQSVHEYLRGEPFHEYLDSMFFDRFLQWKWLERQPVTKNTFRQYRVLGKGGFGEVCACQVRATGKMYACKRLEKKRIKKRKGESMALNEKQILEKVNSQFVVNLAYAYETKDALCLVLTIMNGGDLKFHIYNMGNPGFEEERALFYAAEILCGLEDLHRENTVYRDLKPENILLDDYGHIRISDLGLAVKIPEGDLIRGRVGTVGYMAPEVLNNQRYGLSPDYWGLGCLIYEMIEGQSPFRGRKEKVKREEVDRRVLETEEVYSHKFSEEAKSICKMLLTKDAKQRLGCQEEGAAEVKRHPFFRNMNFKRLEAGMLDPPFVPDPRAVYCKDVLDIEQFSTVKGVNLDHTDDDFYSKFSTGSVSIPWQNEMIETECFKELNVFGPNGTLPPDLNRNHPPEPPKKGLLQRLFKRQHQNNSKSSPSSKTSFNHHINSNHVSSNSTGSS

For the compound `O=C(Nc1ccc(F)cc1)C1(C(=O)Nc2cccc(-c3c[nH]c4ncnc(N5CCOCC5)c34)c2)CC1` [Compound 2], the dTm in test [1] is reported as -0.82 K; in test [2] it was 14.87 K; in test [3], 12.98 K; in test [4], 7.00 K; in [5], 0.23 K; in test [6] it was 1.47 K. In addition, the dTm in test [7] is given as 2.43 K; in [8], 3.27 K; in test [9] it was -0.94 K; in [10] it was -0.56 K; in [11] it was 2.06 K; in [12], -0.63 K.
Take `CCSc1nc(NC)c2c(-c3cccc(NC(=O)Nc4cc(C(C)(C)C)nn4-c4ccc(C)cc4)c3)c[nH]c2n1` [Compound 32]: the dTm is given as -0.61 K in test [1]; 1.19 K in [2]; 8.61 K in [3]; 1.05 K in test [4]; -1.07 K in [5]; 2.07 K in test [6]. In addition, the dTm is -0.15 K in test [7]; 0.08 K in test [8]; 2.14 K in test [9]; 3.75 K in [10]; -0.13 K in test [11]; 0.38 K in test [12].
Take `O=C(Nc1cccc(-c2c[nH]c3ncnc(N4CCOCC4)c23)c1)C1(C(=O)Nc2ccc(F)c(Br)c2)CC1` [Compound 19]: the dTm in [1] is 0.28 K; in [2], 17.38 K; in test [3], 16.12 K; in test [4] it was 8.34 K; in [5], 1.18 K; in test [6], 1.83 K. Further, the dTm is reported as 4.16 K in [7]; 3.23 K in test [8]; -0.34 K in test [9]; 4.40 K in test [10]; 5.56 K in [11]; -0.17 K in test [12].
For `COc1cc(NC(=O)C2(C(=O)Nc3cccc(-c4c[nH]c5ncnc(N6CCOCC6)c45)c3)CC2)ccc1F` [Compound 21], the dTm in [1] was 0.34 K; in test [2] it was 16.69 K; in test [3], 12.16 K; in [4], 7.62 K; in [5] it was 0.54 K; in test [6], 1.21 K. Also, the dTm is reported as 2.99 K in test [7]; 4.69 K in [8]; -0.0363 K in test [9]; 0.29 K in test [10]; 4.31 K in test [11]; -1.06 K in test [12].
Consider `Cc1cc(NC(=O)C2(C(=O)Nc3cccc(-c4c[nH]c5ncnc(N6CCOCC6)c45)c3)CC2)ccc1F` [Compound 20], for which the dTm in test [1] is 1.05 K; in test [2], 17.51 K; in test [3], 16.12 K; in test [4], 10.09 K; in test [5], 1.48 K; in test [6], 2.29 K. The dTm in test [7] is given as 4.17 K; in test [8] it was 5.13 K; in [9], 1.71 K; in [10], 0.56 K; in [11], 6.40 K; in test [12], -1.17 K.
Consider `O=C(Nc1cccc(-c2c[nH]c3ncnc(N4CCOCC4)c23)c1)C1(C(=O)Nc2ccc(F)cc2F)CC1` [Compound 23], for which the dTm in test [1] is -0.45 K; in test [2], 13.56 K; in [3], 9.26 K; in [4], 3.66 K; in test [5] it was 0.67 K; in test [6] it was 1.35 K. Besides, the dTm in [7] is listed as 2.08 K; in [8] it was 2.93 K; in test [9], -0.33 K; in test [10] it was -0.75 K; in [11], 1.05 K; in test [12], -0.57 K.
For `Cc1ccc(-n2nc(C(C)(C)C)cc2NC(=O)Nc2cccc(-c3c[nH]c4ncnc(N5CCOCC5)c34)c2)cc1` [Compound 29], the dTm in test [1] was 0.00 K; in test [2] it was 6.41 K; in [3] it was 20.37 K; in test [4] it was 0.00 K; in test [5], 0.00 K; in test [6] it was 10.07 K. In addition, the dTm is on record as -0.19 K in test [7]; 5.32 K in test [8]; 0.33 K in test [9]; 3.60 K in test [10]; 3.58 K in test [11]; -2.09 K in test [12].
`Cc1ccc(NC(=O)C2(C(=O)Nc3cccc(-c4c[nH]c5ncnc(N6CCOCC6)c45)c3)CC2)cc1` [Compound 14]: the dTm was determined as 0.90 K in test [1]; 11.82 K in test [2]; 11.44 K in [3]; 4.16 K in test [4]; 0.81 K in test [5]; 1.79 K in test [6]. Further, the dTm in test [7] is 1.78 K; in test [8], 2.28 K; in test [9], 0.71 K; in test [10], -1.31 K; in [11] it was 2.44 K; in test [12], -0.76 K.
